Data set [1] addresses T1, human glucagon receptor (hGLUC R) (Homo sapiens, UniProt P47871).
T1 construct: expressed in transfected cells
The experiment in a line: cAMP response (HTRF) of HEK-293 cells stably expressing human glucagon receptor. The data set is classed as cell-based. Particulars: Table 7; cAMP formation. The method, then:
(§1) cAMP content of cells was determined using a kit from Cisbio Corp. (cat. no. 62AM4PEC) based on HTRF (Homogenous Time Resolved Fluorescence). For preparation, cells were split into T175 culture flasks and grown overnight to near confluency in medium (DMEM/10% FBS). Medium was then removed and cells washed with PBS lacking calcium and magnesium, followed by proteinase treatment with accutase (Sigma-Aldrich cat. no. A6964). Detached cells were washed and resuspended in assay buffer (1×HBSS; 20 mM HEPES, 0.1% BSA, 2 mM IBMX) and cellular density determined. They were then diluted to 400000 cells/ml and 25 μl-aliquots dispensed into the wells of 96-well plates. For measurement, 25 μl of test compound in assay buffer was added to the wells, followed by incubation for 30 minutes at room temperature.

Data set [2] deals with T2, human GIP receptor (hGIP R) (Homo sapiens, UniProt P48546).
T2 construct: expressed in transfected cells
T2 sequence (P48546 22-466): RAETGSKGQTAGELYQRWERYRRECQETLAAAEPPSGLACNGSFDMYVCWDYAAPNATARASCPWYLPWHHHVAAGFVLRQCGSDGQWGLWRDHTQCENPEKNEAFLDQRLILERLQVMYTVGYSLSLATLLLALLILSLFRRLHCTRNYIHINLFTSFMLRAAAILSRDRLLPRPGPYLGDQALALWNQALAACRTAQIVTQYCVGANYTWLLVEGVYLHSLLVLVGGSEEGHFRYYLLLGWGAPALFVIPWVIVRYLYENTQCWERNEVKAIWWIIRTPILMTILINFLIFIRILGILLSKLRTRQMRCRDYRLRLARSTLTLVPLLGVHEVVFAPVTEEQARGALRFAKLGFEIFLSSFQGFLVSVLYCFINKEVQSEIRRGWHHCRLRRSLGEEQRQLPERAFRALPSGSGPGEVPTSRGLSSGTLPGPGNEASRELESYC
The experiment in a line: cAMP response (HTRF) of HEK-293 cells stably expressing human GIP receptor. Particulars: Table 7; cAMP formation. The data set is classed as cell-based. The method, then:
as §1
On the technique in general: Time-resolved FRET reads energy transfer from a long-lived donor to a nearby acceptor.

Data set [3] concerns the target T3, human GLP-1 receptor (hGLP-1 R) (Homo sapiens, UniProt P43220).
T3 construct: expressed in transfected cells
The experiment in a line: cAMP response (HTRF) of HEK-293 cells stably expressing human GLP-1 receptor. It is filed as cell-based. Conditions: Table 7; cAMP formation. On the procedure:
as §1

For data set [4], the system named is non-fasted female diabetic dbdb-mice. The data set is described as follows: Glucose lowering in non-fasted female diabetic dbdb-mice. The data set is classed as in vivo. Particulars: 3 μg/kg s.c., at 240 min, kept to 480 min, baseline 20-22 mmol/l. The source says:
Female diabetic dbdb-mice of mean non-fasted glucose value of 20-22 mmol/l and a body weight of 42 g+/−0.6 g (SEM) were used. Mice were individually marked and were adapted to housing conditions for at least one week.
3-5 days prior to study start mice were assigned to groups and cages (4 mice per cage, 8 per group, control group 16) according to their non-fasted glucose values to ensure even distribution of lower and higher values between groups (stratification). On the study day, mice were weighed and dosed (t=0). Immediately prior to compound administration feed was removed while water remained available, and a first blood sample at a tail incision was drawn (baseline). Further blood samples were drawn at the tail incision at 30, 60, 90, 120, 240, 360, and 480 min.
Statistical analyses are performed with Everstat Version 6.0 based on SAS by 2-way-ANOVA on repeated measures, followed by Dunnett's post-hoc test against vehicle-control. Differences are considered statistically significant at the p<0.05 level.

Data set [5] in a line: Chemical stability in solution, 7 days at 25° C., % remaining peptide. The data set is classed as physicochemical. Conditions: % remaining peptide after 7 days at 25° C. The method, then: The chemical stability is expressed as “% remaining peptide”.
(§2) Solubility and chemical stability of peptidic compounds were assessed as described in Methods.

Data set [6] in a line: Solubility testing in buffer, HPLC-UV of supernatant. It is filed as physicochemical. Conditions: buffer, target concentration 1.0 mg/mL. The method, then: as §2
The nature of data set [7]: Pharmacokinetic testing in mice, s.c., LC/MS of plasma. Particulars: mouse, sc, 1 mg/kg s.c. The data set is classed as in vivo. On the procedure: Mice were dosed 1 mg/kg subcutaneously (s.c.).
Pharmacokinetic profiles were determined as described in Methods.

The mark [8] stands for this setting: pH 4.5, read-out: Solubility (pH 4.5).
Setting [9] is: pH 7.4, read-out: Solubility (pH 7.4).

Values after ≈ are worked out from the molar mass of the structure shown. Like-named read-outs stand apart in the source and are kept apart here. *1 amine or outer side, *2 acyl side, *3 side chain or, on linkers, in order; H or OH if unused. Where a SMILES comes first, the peptide text is derived from it. Side-chain parts run from the residue outwards. [ ]: non-standard residue; d: D form. The star is where a group is joined. γGlu = O=C(O)[C@H](CCC(=O)[*:2])N[*:1]; Stearoyl = CCCCCCCCCCCCCCCCCC(=O)*; Palmitoyl = CCCCCCCCCCCCCCCC(=O)*; d(αMeK) = C[C@@](N)(CCCCN)C(=O)O; αMeOrn = C[C@](N)(CCCN)C(=O)O; Aib = CC(C)(N)C(=O)O

T3 sequence (P43220 24-463): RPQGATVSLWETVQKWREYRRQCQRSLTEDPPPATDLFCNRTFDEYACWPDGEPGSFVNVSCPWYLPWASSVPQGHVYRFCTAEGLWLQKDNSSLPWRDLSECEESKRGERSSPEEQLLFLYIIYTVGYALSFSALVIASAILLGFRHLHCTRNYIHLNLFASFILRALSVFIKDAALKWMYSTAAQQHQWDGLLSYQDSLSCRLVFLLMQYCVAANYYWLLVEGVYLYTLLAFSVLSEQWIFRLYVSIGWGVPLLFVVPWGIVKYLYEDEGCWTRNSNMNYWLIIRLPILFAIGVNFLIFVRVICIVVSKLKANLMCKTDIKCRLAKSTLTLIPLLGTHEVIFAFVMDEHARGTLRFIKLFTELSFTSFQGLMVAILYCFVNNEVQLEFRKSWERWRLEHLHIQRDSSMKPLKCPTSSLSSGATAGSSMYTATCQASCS
T1 sequence (P47871 26-477): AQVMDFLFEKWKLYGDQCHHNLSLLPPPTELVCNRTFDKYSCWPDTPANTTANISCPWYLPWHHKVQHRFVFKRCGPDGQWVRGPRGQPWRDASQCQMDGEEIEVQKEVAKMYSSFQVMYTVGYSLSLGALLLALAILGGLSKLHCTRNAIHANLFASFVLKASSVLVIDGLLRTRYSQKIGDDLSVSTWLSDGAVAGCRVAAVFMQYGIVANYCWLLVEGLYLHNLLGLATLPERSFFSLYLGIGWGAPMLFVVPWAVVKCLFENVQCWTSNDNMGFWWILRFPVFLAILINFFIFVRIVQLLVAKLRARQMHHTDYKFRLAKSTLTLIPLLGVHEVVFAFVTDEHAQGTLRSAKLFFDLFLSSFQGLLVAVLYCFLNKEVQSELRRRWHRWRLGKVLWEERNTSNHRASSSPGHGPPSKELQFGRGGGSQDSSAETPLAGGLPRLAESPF

In general, EC50 refers to the concentration at which the effect is half-maximal. A lower EC50 goes with an effect from little substance. On to `CCCCCCCCCCCCCCCC(=O)N[C@@H](CCC(=O)NCCCC[C@H](NC(=O)[C@H](CCC(N)=O)NC(=O)[C@@H](NC(=O)[C@H](CO)NC(=O)[C@H](CC(C)C)NC(=O)[C@H](CC(=O)O)NC(=O)[C@H](CO)NC(=O)[C@@H](NC(=O)[C@H](Cc1ccccc1)NC(=O)[C@@H](NC(=O)CNC(=O)[C@H](CCC(=O)O)NC(=O)C(C)(C)NC(=O)[C@@H](N)Cc1ccc(O)cc1)[C@@H](C)O)[C@@H](C)O)[C@@H](C)CC)C(=O)N[C@@H](CCC(=O)O)C(=O)N[C@@H](CCC(=O)O)C(=O)N[C@@H](CCCNC(=N)N)C(=O)N[C@@H](C)C(=O)N[C@@H](C)C(=O)N[C@](C)(CCCCN)C(=O)N[C@@H](CCC(=O)O)C(=O)N[C@@H](Cc1ccccc1)C(=O)N[C@H](C(=O)N[C@@H](CCC(=O)O)C(=O)N[C@@H](Cc1c[nH]c2ccccc12)C(=O)N[C@@H](CC(C)C)C(=O)N[C@@H](CCCCN)C(=O)N[C@@H](CC(N)=O)C(=O)N[C@H](C(=O)NCC(=O)N1CCC[C@H]1C(=O)N[C@@H](CO)C(=O)N[C@@H](CO)C(=O)NCC(=O)N[C@@H](C)C(=O)N1CCC[C@H]1C(=O)N1CCC[C@H]1C(=O)N1CCC[C@H]1C(=O)N[C@@H](CO)C(N)=O)[C@@H](C)O)[C@@H](C)CC)C(=O)O` [SEQ ID NO: 9, Y-Aib-E-G-T-F-T-S-D-L-S-I-Q-K(γE-x53)-E-E-R-A-A-(R)MeLys-E-F-I-E-W-L-K-N-T-G-P-S-S-G-A-P-P-P-S-NH2] (H-Y[Aib]EGTFTSDLSIQK([γGlu-Palmitoyl])EERAA[d(αMeK)]EFIEWLKNTGPSSGAPPPS-NH2), for which the EC50 in data set [1] was greater than 1000 nM; in data set [2] it was 0.0932 nM; in data set [3] it was 0.0135 nM.
What is called solubility is how much of the substance goes into solution per volume. `CCCCCCCCCCCCCCCCCC(=O)N[C@@H](CCC(=O)NCCCC[C@H](NC(=O)[C@H](CCC(N)=O)NC(=O)[C@H](CCCCN)NC(=O)[C@H](CO)NC(=O)[C@H](CC(C)C)NC(=O)[C@H](CC(=O)O)NC(=O)[C@H](CO)NC(=O)[C@@H](NC(=O)[C@H](Cc1ccccc1)NC(=O)[C@@H](NC(=O)CNC(=O)[C@H](CCC(N)=O)NC(=O)C(C)(C)NC(=O)[C@@H](N)Cc1ccc(O)cc1)[C@@H](C)O)[C@@H](C)O)C(=O)N[C@@H](CC(=O)O)C(=O)N[C@@H](CCC(=O)O)C(=O)N[C@@H](CCC(N)=O)C(=O)N[C@@H](CCCNC(=N)N)C(=O)N[C@@H](C)C(=O)N[C@@](C)(CCCCN)C(=O)N[C@@H](CCC(=O)O)C(=O)N[C@@H](Cc1ccccc1)C(=O)N[C@H](C(=O)N[C@@H](CCC(=O)O)C(=O)N[C@@H](Cc1c[nH]c2ccccc12)C(=O)N[C@@H](CC(C)C)C(=O)N[C@@H](CCCCN)C(=O)N[C@@H](CO)C(=O)NCC(=O)NCC(=O)N1CCC[C@H]1C(=O)N[C@@H](CO)C(=O)N[C@@H](CO)C(=O)NCC(=O)N[C@@H](C)C(=O)N1CCC[C@H]1C(=O)N1CCC[C@H]1C(=O)N1CCC[C@H]1C(=O)N[C@@H](CO)C(N)=O)[C@@H](C)CC)C(=O)O` [SEQ ID NO: 12, Y-Aib-Q-G-T-F-T-S-D-L-S-K-Q-K(γE-x70)-D-E-Q-R-A-(S)MeLys-E-F-I-E-W-L-K-S-G-G-P-S-S-G-A-P-P-P-S-NH2]: in data set [4], the “maximal effect, glucose reduction” value was roughly 11 mmol/L. In data set [5], the “Stability (pH 4.5)” value came to 98.0% and the “Stability (pH 7.4)” value was found to be 91.0%. In addition, in data set [6] (setting [8]), the solubility at 2 h is greater than 1000 µg/mL. In data set [6] (setting [9]), the solubility at 2 h amounted to 983 µg/mL (≈ 211 µM).
As usually defined, the Cmax is the maximum level reached in the sampled fluid or tissue. As usually defined, the half-life is the time in which the quantity being followed falls by half. Lower therefore signals rapid decline. For `CCCCCCCCCCCCCCCCCC(=O)N[C@@H](CCC(=O)NCCCC[C@H](NC(=O)[C@H](CCC(N)=O)NC(=O)[C@@H](NC(=O)[C@H](CO)NC(=O)[C@H](CC(C)C)NC(=O)[C@H](CC(=O)O)NC(=O)[C@H](CO)NC(=O)[C@@H](NC(=O)[C@H](Cc1ccccc1)NC(=O)[C@@H](NC(=O)CNC(=O)[C@H](CCC(N)=O)NC(=O)C(C)(C)NC(=O)[C@@H](N)Cc1ccc(O)cc1)[C@@H](C)O)[C@@H](C)O)[C@@H](C)CC)C(=O)N[C@@H](CC(=O)O)C(=O)N[C@@H](CCC(=O)O)C(=O)N[C@@H](CCC(N)=O)C(=O)N[C@@H](CCCNC(=N)N)C(=O)N[C@@H](C)C(=O)N[C@@](C)(CCCN)C(=O)N[C@@H](CCC(=O)O)C(=O)N[C@@H](Cc1ccccc1)C(=O)N[C@H](C(=O)N[C@@H](CCC(=O)O)C(=O)N[C@@H](Cc1c[nH]c2ccccc12)C(=O)N[C@@H](CC(C)C)C(=O)N[C@@H](CCCCN)C(=O)N[C@@H](C)C(=O)NCC(=O)NCC(=O)N1CCC[C@H]1C(=O)N[C@@H](CO)C(=O)N[C@@H](CO)C(=O)NCC(=O)N[C@@H](C)C(=O)N1CCC[C@H]1C(=O)N1CCC[C@H]1C(=O)N1CCC[C@H]1C(=O)N[C@@H](CO)C(N)=O)[C@@H](C)CC)C(=O)O` [SEQ ID NO: 15, Y-Aib-Q-G-T-F-T-S-D-L-S-I-Q-K(γE-x70)-D-E-Q-R-A-(S)MeOrn-E-F-I-E-W-L-K-A-G-G-P-S-S-G-A-P-P-P-S-NH2] (H-Y[Aib]QGTFTSDLSIQK([γGlu-Stearoyl])DEQRA[αMeOrn]EFIEWLKAGGPSSGAPPPS-NH2), in data set [2], a half-maximal response (EC50) required 0.0089 nM. In data set [7], this molecule showed a Cmax of 3740 ng/mL and a half-life of 2.9 h. Further, the “maximal effect, glucose reduction” value in data set [4] was roughly 12 mmol/L. In data set [5], the “Stability (pH 4.5)” value is 98.0% and the “Stability (pH 7.4)” value stood at 98.0%. Also, in data set [6] (setting [8]), the solubility at 2 h was greater than 1000 µg/mL. Further, the solubility at 2 h in data set [6] (setting [9]) is greater than 1000 µg/mL. This molecule also came in with an EC50 in data set [3] of 0.0161 nM.

Source of the values: US9745360B2 (Sanofi, priority 2012, dated 2017).
